From US20220249431A1, “ANTIMYCOTIC” (Karl-Franzens-Universität Graz, priority 2019, published 2022)
Values after ≈ are worked out from the molar mass of the structure shown. Read-outs that look alike come from different tables or passages of the source. Each block holds one compound with its values, some of them ahead of it.

Assays:
C. albicans [1] = test: Minimal inhibitory concentration, planktonic cells (CLSI M27); assay type: cell-based; settings: Candida albicans, growth reduced to 50% of untreated control
Experimental: (§1) The minimal inhibitory concentration (MIC) was determined following the standard Clinical and Laboratory Standards Institute (CLSI) protocol M27 (Rex JH, and Clinical and Laboratory Standards Institute (2008). Reference method for broth dilution antifungal susceptibility testing of yeasts: approved standard, 3rd ed. National Committee for Clinical Laboratory Standards, Wayne, Pa.) for yeast strains or the standard CLSI protocol […] (Clinical and Laboratory Standards Institute (2008). Reference method for broth dilution antifungal susceptibility testing of filamentous fungi. Clinical and Laboratory Standards Institute, Wayne, Pa.) for filamentous fungi. For yeast strains media was inoculated with an overnight culture to an OD600 of 0.001 (1^04 cells/mL). Serial dilutions of substances were added and cells were incubated at 37° C. without shaking for 48±1 h. MIC tests were performed in flat-bottom 96 well plates (Greiner Bio One, Austria) using 100 μL suspension per well sealed with gas-permeable foils. After incubation, OD490 values were measured using 96-well plate reader and growth capacity was analyzed by setting the corresponding control to 100%. Different flavones were randomly chosen and tested for their effects on planktonic cells and biofilms of C. albicans and C. glabrata to determine corresponding IC50 values (the concentration that is required to reduce growth (minimal inhibitory concentration=MIC) or biofilm formation (biofilm inhibitory concentration=BIC) to 50% compared to the untreated control).

C. albicans biofilm = test: Biofilm inhibition concentration (CTB staining); assay type: cell-based; settings: Candida albicans; C. albicans biofilm formation reduced to 50% of untreated control; read-out: BIC50
Experimental: The biofilm inhibition concentration (BIC) was determined as described in […] et al. (J Antimicrob Chemother 69(2014): 1035-1044). In short, RPMI medium was inoculated with an overnight culture to an OD (optical density) of 0.1, transferred to a U-bottom 96-well plate (MLS, Belgium) and treated with serial dilutions of substances. After the adherence phase (1 h, 37° C.), supernatant was removed, adherent cells were washed with PBS and fresh media (including substances) was added. Biofilms were then allowed to grow for 24 h at 37° C. Formed biofilms were then analyzed for their metabolic activity. Therefore, C. albicans biofilm cells were treated with CTB (cell titer Blue®; Promega, Germany), diluted 1:100 in PBS. After incubation for 1 h at 37° C. in the dark fluorescence intensity was measured using a 96-well plate reader (Ex: 535, Em: 590, sens 65). […] Sigma, Germany or ABCR, Germany) was used instead. Thereby, biofilm cells were treated with an XTT solution (0.25 mg/mL XTT+0.1 μM menadione in PBS) at 37° C. in the dark and OD490 was measured. As for MIC, biofilm inhibition was analyzed by setting the corresponding control to 100%. Different flavones were randomly chosen and tested for their effects on planktonic cells and biofilms of C. albicans and C. glabrata to determine corresponding IC50 values (the concentration that is required to reduce growth (minimal inhibitory concentration=MIC) or biofilm formation (biofilm inhibitory concentration=BIC) to 50% compared to the untreated control).

C. glabrata = test: Minimal inhibitory concentration, planktonic cells (CLSI M27); assay type: cell-based, Candida glabrata; settings: Nakaseomyces glabratus, growth reduced to 50% of untreated control
Experimental: as §1

C. glabrata biofilm = test: Biofilm inhibition concentration (XTT); assay type: cell-based, Candida glabrata; settings: Nakaseomyces glabratus, read-out: BIC50
Experimental: In short, RPMI medium was inoculated with an overnight culture to an OD (optical density) of 0.1, transferred to a U-bottom 96-well plate (MLS, Belgium) and treated with serial dilutions of substances. After the adherence phase (1 h, 37° C.), supernatant was removed, adherent cells were washed with PBS and fresh media (including substances) was added. Biofilms were then allowed to grow for 24 h at 37° C. Formed biofilms were then analyzed for their metabolic activity. Therefore, C. albicans biofilm cells were treated with CTB (cell titer Blue®; Promega, Germany), diluted 1:100 in PBS. […] Sigma, Germany or ABCR, Germany) was used instead. Thereby, biofilm cells were treated with an XTT solution (0.25 mg/mL XTT+0.1 μM menadione in PBS) at 37° C. in the dark and OD490 was measured.

C. albicans [2] = test: Checkerboard / combination assay, growth of planktonic cells (OD490); assay type: cell-based, Candida albicans; settings: for antimycotic effect in combination with other known antimycotics: FIGS. 6 and 7; for effect on antifungal activity of azole antifungals (growth, OD490): flavone 6.25-25 μM with 0.1 μM miconazole or 1 μM fluconazole
Experimental: The minimal inhibitory concentration (MIC) was determined following the standard Clinical and Laboratory Standards Institute (CLSI) protocol M27 (Rex JH, and Clinical and Laboratory Standards Institute (2008). Reference method for broth dilution antifungal susceptibility testing of yeasts: approved standard, 3rd ed. National Committee for Clinical Laboratory Standards, Wayne, Pa.) for yeast strains or the standard CLSI protocol M38 (Clinical and Laboratory Standards Institute (2008). Reference method for broth dilution antifungal susceptibility testing of filamentous fungi. Clinical and Laboratory Standards Institute, Wayne, Pa.) for filamentous fungi.
For yeast strains media was inoculated with an overnight culture to an OD600 of 0.001 (1^04 cells/mL). Serial dilutions of substances were added and cells were incubated at 37° C. without shaking for 48±1 h.
MIC tests were performed in flat-bottom 96 well plates (Greiner Bio One, Austria) using 100 μL suspension per well sealed with gas-permeable foils. After incubation, OD490 values were measured using 96-well plate reader and growth capacity was analyzed by setting the corresponding control to 100%.
For synergy testing of different combinations, checkerboard assays were performed. Therefore, serial dilutions of two different compounds were combined for MIC, BIC or BEC testing as described above. Antifungal activity of substances alone or in combination was determined by setting the corresponding control to 100%.

C. albicans SC5314 = test: C. elegans infection model, worm survival; assay type: in vivo
Experimental: The C. elegans Δglp-4 Δsek-1 strain (generously provided by Valerie Defraine, Centre of Microbial and Plant Genetics, KU Leuven, Belgium) was used for in vivo testing of antifungal activity. Worms were maintained on NGM plates (nematode growth medium; 2.5 g/L Bacto Peptone, 3 g/L NaCl, 17 g/L agar, supplemented with 5 mg/L cholesterol, 1 mM CaCl2), 1 mM MgSO4 and 25 mM KPO4 buffer pH 6.0), seeded with a thin layer of E. coli OP50, at 16° C. and worms were chunked onto fresh plates every three to four days.
Egg collecting was performed by bleaching according to Stiernagle T (“Maintenance of C. elegans”. WormBook. doi: 10.1895/wormbook.1.101 (2006)) and Porta-de-la-Riva M et al. JoVE 64(2012): e4019-e4019). In short, adult worms were collected from plates and treated with a bleaching solution (10 mL household bleach+5 mL 5M NaOH), thereby worms disintegrate and eggs are released. After vigorous shaking for 5 min, M9 medium (3 g/L KH2PO4, 6 g/L Na2HPO4, 5 g/L NaCl, supplemented with 1.25 mM MgSO4) was added and worms were immediately put on ice. After three washing steps, residual eggs were incubated in M9 medium over night at 16° C. on a tube roller. The next day, eggs were collected, transferred onto fresh NGM/OP50 plates and incubated at 25° C. for 3-4 days until nematodes have reached the L3/L4 stage prior to infection.
Synchronized (L3/L4 stage) worms were collected, washed three times with M9 media and spotted onto prepared YPD plates with a thin layer of C. albicans SC5314. […]
For efficacy testing of compounds, 750 μL of the worm suspension were transferred into each well of a 24-well plate and substances were added at indicated concentrations (1% DMSO). Nematodes were immediately counted (t0) and survival was monitored over five days post infection by counting living worms.
To verify the antifungal potential of DHF in vivo, the well-established C. elegans infection model (Breger J, et al. (2007) PLOS Pathog. 3(2): e18.) was used. […] Survival of infected as well as non-infected nematodes was monitored daily over the time period of 5 days (FIG. 2A). […]

C. albicans biofilms = test: Checkerboard assay, biofilm inhibition (CTB staining); assay type: cell-based, Candida albicans
Experimental: The biofilm inhibition concentration (BIC) was determined as described in Delattin N et al. (J Antimicrob Chemother 69(2014): 1035-1044). In short, RPMI medium was inoculated with an overnight culture to an OD (optical density) of 0.1, transferred to a U-bottom 96-well plate (MLS, Belgium) and treated with serial dilutions of substances. After the adherence phase (1 h, 37° C.), supernatant was removed, adherent cells were washed with PBS and fresh media (including substances) was added. Biofilms were then allowed to grow for 24 h at 37° C.
Formed biofilms were then analyzed for their metabolic activity. Therefore, C. albicans biofilm cells were treated with CTB (cell titer Blue®; Promega, Germany), diluted 1:100 in PBS. After incubation for 1 h at 37° C. in the dark fluorescence intensity was measured using a 96-well plate reader (Ex: 535, Em: 590, sens 65). For C. glabrata, XTT (2H-Tetrazolium, 2,3-bis(2-methoxy-4-nitro-5-sulfophenyl)-5-[(phenylamino)carbonyl]-hydroxide; Sigma, Germany or ABCR, Germany) was used instead. Thereby, biofilm cells were treated with an XTT solution (0.25 mg/mL XTT+0.1 μM menadione in PBS) at 37° C. in the dark and OD490 was measured.
For synergy testing of different combinations, checkerboard assays were performed. […] Antifungal activity of substances alone or in combination was determined by setting the corresponding control to 100%.

[3] = C. glabrata biofilm formation reduced to 50% of untreated control

Structure (SMILES): O=c1cc(-c2ccc(O)cc2)oc2cccc(O)c12 [4′,5-dihydroxyflavone, reference compound]
MIC50 (C. albicans [1]): > 400 µM
IC50 (C. albicans biofilm): > 400 µM
MIC50 (C. glabrata): > 400 µM
IC50 (C. glabrata biofilm; [3]): > 400 µM

Structure (SMILES): O=c1c(O)c(-c2ccccc2)oc2cc(O)ccc12 [3,7-dihydroxyflavone]
IC50 (C. glabrata biofilm): 62.5 ± 26 µM

Structure (SMILES): O=c1cc(-c2ccccc2)oc2cc(O)ccc12 [7-hydroxyflavone]
IC50 (C. glabrata biofilm): 17.4 ± 7 µM

Structure (SMILES): O=c1cc(-c2ccc(O)c(O)c2)oc2cc(O)cc(O)c12 [luteolin, 3′,4′,5,7-tetrahydroxyflavone]
antimycotic effect in combination with other known antimycotics (C. albicans [2]): synergistic antimycotic effect
effect on antifungal activity of azole antifungals (growth, OD490) (C. albicans [2]): enhance the antifungal activity of azole antifungals

Structure (SMILES): O=c1cc(-c2cccc(O)c2)oc2ccccc12 [3′-hydroxyflavone]
IC50 (C. glabrata biofilm; [3]): 26.7 ± 3 µM

Structure (SMILES): O=c1cc(-c2ccc(O)c(O)c2)oc2cc(O)ccc12 [3′,4′,7-trihydroxyflavone]
antimycotic effect in combination with other known antimycotics (C. albicans [2]): synergistic antimycotic effect
effect on antifungal activity of azole antifungals (growth, OD490) (C. albicans [2]): enhance the antifungal activity of azole antifungals

Structure (SMILES): O=c1cc(-c2ccccc2)oc2cc(O)c(O)cc12 [6,7-dihydroxyflavone]
MIC50 (C. glabrata): 15.7 ± 4.1 µM (≈ 3.99 µg/mL)
IC50 (C. glabrata biofilm; [3]): 41.7 ± 9.1 µM

Further lines, with some results ahead:

MIC50 (C. albicans [1]): > 400 µM
IC50 (C. albicans biofilm): > 400 µM
MIC50 (C. glabrata): > 400 µM
IC50 (C. glabrata biofilm; [3]): > 400 µM
Structure (SMILES): O=c1cc(-c2ccccc2)oc2cc(O)cc(O)c12 [5,7-dihydroxyflavone, reference compound]

IC50 (C. albicans biofilm): 147 ± 17.3 µM
Structure (SMILES): O=c1cc(-c2ccc(O)c(O)c2)oc2ccccc12 [3′,4′-dihydroxyflavone]
effect on antifungal activity of antimycotics (growth, OD490) (C. albicans [2]; 12.5-25 μM 3′,4′-DHF with miconazole, fluconazole, ketoconazole or clotrimazole): enhances the antifungal activity of antimycotics
antimycotic effect in combination with other known antimycotics (C. albicans [2]): synergistic antimycotic effect

MIC50 (C. albicans [1]): 254 ± 68.5 µM (≈ 64.7 µg/mL)
MIC50 (C. glabrata): 5.9 ± 0.1 µM (≈ 1.5 µg/mL)
Structure (SMILES): O=c1c(O)c(-c2cccc(O)c2)oc2ccccc12 [3,3′-dihydroxyflavone]
IC50 (C. glabrata biofilm; [3]): 21.5 ± 3.6 µM

MIC50 (C. glabrata): 53.9 ± 2.1 µM (≈ 13.7 µg/mL)
IC50 (C. glabrata biofilm; [3]): 124 ± 34.7 µM
Structure (SMILES): O=c1c(O)c(-c2ccccc2O)oc2ccccc12 [2′,3-dihydroxyflavone]

IC50 (C. glabrata biofilm; [3]): 129 ± 14.2 µM
Structure (SMILES): O=c1cc(-c2ccccc2)oc2ccc(O)cc12 [6-hydroxyflavone]

MIC50 (C. glabrata): 6.2 ± 0.2 µM (≈ 1.48 µg/mL)
Structure (SMILES): O=c1c(O)c(-c2ccccc2)oc2ccccc12 [3-hydroxyflavone]

MIC50 (C. albicans [1]): 9.5 ± 0.1 µM (≈ 2.42 µg/mL)
IC50 (C. albicans biofilm): 55.2 ± 8.1 µM
MIC50 (C. glabrata): 7.9 ± 1 µM (≈ 2.01 µg/mL)
Structure (SMILES): O=c1c(O)c(-c2ccccc2)oc2ccc(O)cc12 [3,6-dihydroxyflavone]
IC50 (C. glabrata biofilm; [3]): 23.4 ± 9.7 µM
effect on activity of azoles in vivo (worm survival) (C. albicans SC5314; 25 μM 3,6-DHF with 0.125 μM miconazole or 0.5 μM fluconazole, 5 days): enhances the activity of azoles
effect on antifungal activity of AMB in vivo (worm survival) (C. albicans SC5314; 25 μM 3,6-DHF with 0.5 μM AMB, 5 days): enhances the antifungal activity of AMB
worms still alive at day 5 post infection (C. albicans SC5314; 50 μM DHF, single application immediately after infection, infected control 20.5%): 45.7%
effect on activity of caspofungin, growth of planktonic cells (C. albicans [2]; 4.9 nM Caspo, 5 μM 3,6-DHF, preliminary data): enhances the activity of Caspofungin
effect on activity of azoles in vitro (growth inhibition) (C. albicans [2]; 3.1 μM 3,6-DHF with 0.4 μM miconazole or 0.5 μM fluconazole): enhances the activity of azoles
effect on activity of caspofungin, biofilm formation (C. albicans biofilms; 39 nM Caspo, 3.1 μM 3,6-DHF): enhances the activity of Caspofungin
combination with AMB on biofilms in vitro (C. albicans biofilms; 0.16 μM AMB, 25 μM 3,6-DHF): acts synergistically with AMB
